In brackets after ≈: the same amount, converted by molar mass. Where a SMILES comes first, the peptide text is derived from it. Bridges are numbered along the chain shown (N, C = ends). [ ]: non-standard residue; d: D form. The star is where a group is joined. Ileψ(thiazoline)Cys = CC[C@H](C)[C@H](N)C1=N[C@H](C(=O)*)CS1; dOrn = NCCC[C@@H](N)C(=O)O
Columns and labels:
Staphylococcus aureus = experiment: Antibacterial activity against Staphylococcus aureus ATCC 25923 incubated for 18 hrs by CLSI based broth dilution method; assay type: functional
Bacillus subtilis = experiment: Antibacterial activity against Bacillus subtilis ATCC 23857 incubated for 18 hrs by CLSI based broth dilution method; assay type: functional
Enterococcus faecalis = experiment: Antibacterial activity against Enterococcus faecalis ATCC 29212 incubated for 18 hrs by CLSI based broth dilution method; assay type: functional
[1] = test system: Staphylococcus epidermidis; experiment: Antibacterial activity against Staphylococcus epidermidis ATCC 12228 incubated for 18 hrs by CLSI based broth dilution method; assay type: functional
Escherichia coli = experiment: Antibacterial activity against Escherichia coli ATCC 25922 incubated for 18 hrs by CLSI based broth dilution method; assay type: functional
Pseudomonas aeruginosa = experiment: Antibacterial activity against Pseudomonas aeruginosa ATCC 27853 incubated for 18 hrs by CLSI based broth dilution method; assay type: functional
Klebsiella pneumoniae = experiment: Antibacterial activity against Klebsiella pneumoniae ATCC 700603 incubated for 18 hrs by CLSI based broth dilution method; assay type: functional
Acinetobacter baumannii = experiment: Antibacterial activity against Acinetobacter baumannii ATCC 19606 incubated for 18 hrs by CLSI based broth dilution method; assay type: functional; settings: ATCC 19606 = CIP 70.34 = JCM 6841
Erythrocyte = experiment: Hemolytic activity in BALB/C mouse erythrocytes incubated for 1 hr by absorbance method; assay type: ADME, cell-based
[2] = Cytotoxicity against human glomerular mesangial cells incubated for 12 hrs by MTT assay; assay type: cell-based; settings: Glomerular mesangial cell
Bacteria [3] = experiment: Antibacterial activity against bacteria incubated for 18 hrs by CLSI based broth dilution method; assay type: functional
Fungi = experiment: Antibacterial activity against fungi incubated for 18 hrs by CLSI based broth dilution method; assay type: functional
[4] = Selectivity ratio of MHC10 for BALB/C mouse erythrocytes to MIC for bacteria; assay type: toxicity
[5] = Selectivity ratio of MHC10 for BALB/C mouse erythrocytes to MIC for fungi; assay type: toxicity
Bacteria [6] = experiment: Antibacterial activity against Gram-positive bacteria incubated for 18 hrs by CLSI based broth dilution method; assay type: functional
[7] = Selectivity ratio of MHC10 for BALB/C mouse erythrocytes to MIC for gram positive bacteria; assay type: toxicity
Bacteria [8] = experiment: Antibacterial activity against Gram-negative bacteria incubated for 18 hrs by CLSI based broth dilution method; assay type: functional
[9] = Selectivity ratio of MHC10 for BALB/C mouse erythrocytes to MIC for gram-negative bacteria; assay type: toxicity

| MIC (Staphylococcus aureus) | MIC (Bacillus subtilis) | MIC (Enterococcus faecalis) | MIC [1] | MIC (Escherichia coli) | MIC (Pseudomonas aeruginosa) | MIC (Klebsiella pneumoniae) | MIC (Acinetobacter baumannii) | MIC (Bacteria [3]) | MIC (Fungi) | MIC (Bacteria [6]) | MIC (Bacteria [8]) | Compound | MHC10 (Erythrocyte) | IC50 [2] | selectivity ratio [4] | selectivity ratio [5] | selectivity ratio at 18 h [7] | selectivity ratio [9] |
| --- | --- | --- | --- | --- | --- | --- | --- | --- | --- | --- | --- | --- | --- | --- | --- | --- | --- | --- |
| ≥ 512 µM | ≥ 512 µM | ≥ 512 µM | ≥ 512 µM | ≥ 512 µM | ≥ 512 µM | ≥ 512 µM | ≥ 512 µM | ≥ 512 µM | ≥ 512 µM | ≥ 512 µM | ≥ 512 µM | C[C@H](NC(=O)[C@H](C)NC(=O)[C@@H](NC(=O)[C@H](CCCCN)NC(=O)[C@H](C)NC(=O)[C@H](CCCNC(=N)N)NC(=O)[C@H](CCCCN)NC(=O)[C@H](C)NC(=O)[C@H](C)NC(=O)CN)[C@@H](C)O)C(N)=O (H-GAAKRAKTAA-NH2) | >= 512 uM | ≥ 512 µM | 1 | 1 | 1 | 1 |
| 32 µM (≈ 43.8 µg/mL) | 64 µM (≈ 87.5 µg/mL) | 128 µM (≈ 175 µg/mL) | 128 µM (≈ 175 µg/mL) | 32 µM (≈ 43.8 µg/mL) | 32 µM (≈ 43.8 µg/mL) | 64 µM (≈ 87.5 µg/mL) | 128 µM (≈ 175 µg/mL) | 58.7 µM (≈ 80.3 µg/mL) | 58.7 µM (≈ 80.3 µg/mL) | 76.1 µM (≈ 104 µg/mL) | 45.3 µM (≈ 62 µg/mL) | CC[C@H](C)[C@H](NC(=O)CN)C(=O)N[C@@H](CCCNC(=N)N)C(=O)N[C@@H](Cc1c[nH]c2ccccc12)C(=O)N[C@@H](CCCCN)C(=O)N[C@@H](Cc1ccccc1)C(=O)N[C@@H](Cc1c[nH]c2ccccc12)C(=O)N[C@@H](CCCCN)C(=O)N[C@@H](Cc1ccccc1)C(=O)N[C@H](C(N)=O)[C@@H](C)O (H-GIRWKFWKFT-NH2) | >= 512 uM | ≥ 512 µM | 8.72 | 8.72 | 6.73 | 11.3 |
| 2 µM (≈ 0.911 µg/mL) | < 1 µM | ≥ 512 µM | 2 µM (≈ 0.911 µg/mL) | < 1 µM | < 1 µM | 8 µM (≈ 3.64 µg/mL) | 32 µM (≈ 14.6 µg/mL) |  |  |  |  | CO/N=C(\C(=O)N[C@@H]1C(=O)N2C(C(=O)O)=C(COC(C)=O)CS[C@H]12)c1csc(N)n1 [CEFOTAXIME] |  |  |  |  |  |  |
| < 1 µM | < 1 µM | < 1 µM | < 1 µM | < 1 µM | < 1 µM | < 1 µM | < 1 µM |  |  |  |  | C[C@@H](O)[C@H]1C(=O)N2C(C(=O)O)=C(SCCNC=N)C[C@H]12 [IMIPENEM ANHYDROUS] |  |  |  |  |  |  |

The remaining lines, values behind:

| Compound | MIC (Staphylococcus aureus) | MIC (Bacillus subtilis) | MIC (Enterococcus faecalis) | MIC [1] | MIC (Escherichia coli) | MIC (Pseudomonas aeruginosa) | MIC (Klebsiella pneumoniae) | MIC (Acinetobacter baumannii) | MIC (Bacteria [3]) | MIC (Fungi) | MIC (Bacteria [6]) | MIC (Bacteria [8]) | MHC10 (Erythrocyte) | IC50 [2] | selectivity ratio [4] | selectivity ratio [5] | selectivity ratio at 18 h [7] | selectivity ratio [9] |
| --- | --- | --- | --- | --- | --- | --- | --- | --- | --- | --- | --- | --- | --- | --- | --- | --- | --- | --- |
| CC(C)C[C@H](NC(=O)[C@H](C)NC(=O)[C@@H](NC(=O)[C@H](CCCCN)NC(=O)[C@H](C)NC(=O)[C@H](CCCNC(=N)N)NC(=O)[C@H](CCCCN)NC(=O)[C@H](C)NC(=O)[C@H](C)NC(=O)CN)[C@@H](C)O)C(N)=O (H-GAAKRAKTAL-NH2) | ≥ 512 µM | ≥ 512 µM | ≥ 512 µM | ≥ 512 µM | ≥ 512 µM | ≥ 512 µM | ≥ 512 µM | ≥ 512 µM | ≥ 512 µM | ≥ 512 µM | ≥ 512 µM | ≥ 512 µM | >= 512 uM | ≥ 512 µM | 1 | 1 | 1 | 1 |
| CC(C)C[C@H](NC(=O)[C@H](C)NC(=O)[C@@H](NC(=O)[C@H](CCCCN)NC(=O)[C@H](C)NC(=O)[C@H](CCCNC(=N)N)NC(=O)[C@H](CCCCN)NC(=O)[C@H](CC(C)C)NC(=O)[C@H](C)NC(=O)CN)[C@@H](C)O)C(N)=O (H-GALKRAKTAL-NH2) | ≥ 512 µM | ≥ 512 µM | ≥ 512 µM | ≥ 512 µM | ≥ 512 µM | ≥ 512 µM | ≥ 512 µM | ≥ 512 µM | ≥ 512 µM | ≥ 512 µM | ≥ 512 µM | ≥ 512 µM | >= 512 uM | ≥ 512 µM | 1 | 1 | 1 | 1 |
| CC(C)C[C@H](NC(=O)[C@H](Cc1ccccc1)NC(=O)CN)C(=O)N[C@@H](CCCCN)C(=O)N[C@@H](CCCNC(=N)N)C(=O)N[C@@H](Cc1ccccc1)C(=O)N[C@@H](CCCCN)C(=O)N[C@H](C(=O)N[C@@H](CC(C)C)C(=O)N[C@@H](Cc1ccccc1)C(N)=O)[C@@H](C)O (H-GFLKRFKTLF-NH2) | 64 µM (≈ 80.4 µg/mL) | 64 µM (≈ 80.4 µg/mL) | 128 µM (≈ 161 µg/mL) | 8 µM (≈ 10 µg/mL) | 64 µM (≈ 80.4 µg/mL) | 64 µM (≈ 80.4 µg/mL) | 128 µM (≈ 161 µg/mL) | 128 µM (≈ 161 µg/mL) | 49.4 µM (≈ 62 µg/mL) | 49.4 µM (≈ 62 µg/mL) | 45.3 µM (≈ 56.9 µg/mL) | 53.8 µM (≈ 67.6 µg/mL) | 384 µM | 209 µM | 7.78 | 7.78 | 8.48 | 7.14 |
| CC[C@H](C)[C@H](N)C1=N[C@H](C(=O)N[C@@H](CC(C)C)C(=O)N[C@H](CCC(=O)O)C(=O)N[C@H](C(=O)N[C@H]2CCCCNC(=O)[C@H](CC(N)=O)NC(=O)[C@@H](CC(=O)O)NC(=O)[C@H](Cc3cnc[nH]3)NC(=O)[C@@H](Cc3ccccc3)NC(=O)[C@H]([C@@H](C)CC)NC(=O)[C@@H](CCCN)NC2=O)[C@@H](C)CC)CS1 [BACITRACIN] ({Ileψ(thiazoline)Cys}-L[dE]IK[dOrn]I[dF]H[dD]N; lactam 4-C) | 16 µM (≈ 22.8 µg/mL) | ≥ 512 µM | 32 µM (≈ 45.5 µg/mL) | 8 µM (≈ 11.4 µg/mL) | ≥ 512 µM | ≥ 512 µM | ≥ 512 µM | ≥ 128 µM |  |  |  |  |  |  |  |  |  |  |
| NC[C@H]1O[C@H](O[C@H]2[C@H](O)[C@@H](O[C@H]3O[C@H](CO)[C@@H](O)[C@H](N)[C@H]3O)[C@H](N)C[C@@H]2N)[C@H](O)[C@@H](O)[C@@H]1O [KANAMYCIN] | < 1 µM | < 1 µM | 8 µM (≈ 3.88 µg/mL) | < 1 µM | 8 µM (≈ 3.88 µg/mL) | 8 µM (≈ 3.88 µg/mL) | 32 µM (≈ 15.5 µg/mL) | 4 µM (≈ 1.94 µg/mL) |  |  |  |  |  |  |  |  |  |  |
| C[C@@H](O)[C@H]1C(=O)N2C(C(=O)O)=C(S[C@@H]3CN[C@H](C(=O)N(C)C)C3)[C@H](C)[C@H]12 [MEROPENEM] | < 1 µM | < 1 µM | 4 µM (≈ 1.53 µg/mL) | < 1 µM | < 1 µM | < 1 µM | < 1 µM | < 1 µM |  |  |  |  |  |  |  |  |  |  |
| CC1(C)S[C@@H]2[C@H](NC(=O)Cc3ccccc3)C(=O)N2[C@H]1C(=O)O [PENICILLIN G] | < 1 µM | < 1 µM | 4 µM (≈ 1.34 µg/mL) | 16 µM (≈ 5.35 µg/mL) | 64 µM (≈ 21.4 µg/mL) | 64 µM (≈ 21.4 µg/mL) | ≥ 512 µM | 128 µM (≈ 42.8 µg/mL) |  |  |  |  |  |  |  |  |  |  |
| CN[C@@H]1[C@H](O[C@H]2[C@H](O[C@H]3[C@H](O)[C@@H](O)[C@H](N=C(N)N)[C@@H](O)[C@@H]3N=C(N)N)O[C@@H](C)[C@]2(O)C=O)O[C@@H](CO)[C@H](O)[C@H]1O [STREPTOMYCIN] | < 1 µM | 2 µM (≈ 1.16 µg/mL) | 16 µM (≈ 9.31 µg/mL) | 32 µM (≈ 18.6 µg/mL) | 4 µM (≈ 2.33 µg/mL) | 4 µM (≈ 2.33 µg/mL) | < 1 µM | 2 µM (≈ 1.16 µg/mL) |  |  |  |  |  |  |  |  |  |  |

— ChEMBL document CHEMBL4823282, “Novel Broad-Spectrum Antimicrobial Peptide Derived from Anoplin and Its Activity on Bacterial Pneumonia in Mice” (J Med Chem, 2021)
